Results taken from article PMC6994103 (PLoS Neglected Tropical Diseases, 2020).
Values joined by “and” are separate entries in the source; they are usually repeats but may differ in a detail not shown here. Equal entries are not always repeated.

Tests used:
[1] = system: T. cruzi epimastigotes Y strain; test: Synergism BZL with LTD-CPH-CFZ in epimastigotes, Y strain (CompuSyn); format: cell-based, Trypanosoma cruzi; settings: alone
Protocol: (§1) Parasites´ growth was evaluated at different concentrations of BZL, CV and CV structural analogues, and parasite proliferation was determined after 48 h. […] Growth was determined by counting in a Neubauer chamber and viability assays by using “Cell Titer 96 Aqueous One Solution Cell Proliferation Assay (MTS)” (Promega, Madison, WI, USA) according to the manufacturer’s instructions. Amastigotes were fixed with methanol, stained and mounted with Vectashield with DAPI (Vector Laboratories, Burlingame, CA, USA), and then the non-lysed cells were counted by using fluorescence microscopy. Calculations were performed using CompuSyn software (http://combosyn.com) which is based on the median-effect equation [48] and its extension, the combination index.

[2] = system: T. cruzi epimastigotes CL Brener strain; test: Trypanocidal activity in epimastigotes, CL Brener strain; format: cell-based, Trypanosoma cruzi; settings: Y vs CL Brener
Protocol: VERO cells (5 x10^4 per well) were infected with trypomastigotes (2.5 ×10^5 per well) for 4 h. After this period, the infected cells were washed twice with phosphate-buffered saline (PBS), the MEM medium was replaced, and the cells were kept in culture at 37°C, 5% CO2. In order to obtain intracellular amastigotes, the cells were lysed 4 days after infection using a cell scraper, collected, washed twice with PBS (or MEM) and counted using a hemocytometer. Trypomastigotes were obtained from infected VERO cells as previously described.
Epimastigotes of T. cruzi were cultured as described above, in 24-wells plate at a start density of 0.5 x10^7 cells/mL in BHT medium. Parasites´ growth was evaluated at different concentrations of BZL, CV and CV structural analogues, and parasite proliferation was determined after 48 h. […] Growth was determined by counting in a Neubauer chamber and viability assays by using “Cell Titer 96 Aqueous One Solution Cell Proliferation Assay (MTS)” (Promega, Madison, WI, USA) according to the manufacturer’s instructions. Amastigotes were fixed with methanol, stained and mounted with Vectashield with DAPI (Vector Laboratories, Burlingame, CA, USA), and then the non-lysed cells were counted by using fluorescence microscopy.

VERO cells = test: Toxicity assay in VERO cells (gentian violet staining); format: cell-based, African green monkey; settings: IC50 in VERO cells / IC50 in trypomastigotes (Y strain)
Protocol: (§2) VERO cells (African green monkey Kidney, ATCC CCL-81) were cultured in MEM medium supplemented with 10% heat inactivated FCS, 0.15% (w/v) NaHCO3, 100 U/mL penicillin and 100 U/mL streptomycin at 37°C in 5% CO2.
(§3) The toxicity of the compounds was determined in VERO cells by the gentian violet staining assay. Briefly, the cells (1 x10^4 cells/well) were incubated in 96-well plates with the indicated compound or dimethyl sulfoxide (DMSO) as negative control and maintained at 37° C for 24 h. Then the cells were fixed for 15 min, and stained with 0.5% gentian violet. The absorbance was measured at 570 nm. The selectivity index (SI) was calculated for each CV analogue as the ratio between the IC50 obtained in mammalian cells and the IC50 in trypomastigotes. For the combined treatment, the results were presented as percentage of untreated cells.

[3] = as above; format: cell-based, African green monkey; settings: African green monkey, VERO cells, 24 h, read-out: viability of the VERO cells, percentage of untreated cells
Protocol: as §2, §3

[4] = system: T. cruzi trypomastigotes Y strain; test: Synergism BZL with LTD-CPH-CFZ in trypomastigotes, Y strain (CompuSyn); format: cell-based, Trypanosoma cruzi
Protocol: as §1

In the case of `O=C(Cn1ccnc1[N+](=O)[O-])NCc1ccccc1` [Benznidazole], the “Dose BZL alone” value ([1]; same effect (Fa 0.951) as BZL 10.00 µM + LTD-CPH-CFZ 42.50 µM) is reported as 457.73 ± 30.35 µM, the “Dose BZL alone” value ([1]; same effect (Fa 0.981) as BZL 20.00 µM + LTD-CPH-CFZ 42.50 µM) is reported as 1370.11 ± 265.72 µM and the “fold more sensitive Y vs CL Brener epimastigotes” value [2] is reported as 1.3 fold. For the same molecule, the “Selectivity Index” value (VERO cells) was over 67, the viability at 24 h, 5 µM ([3]; BZL 5.0 µM + LTD-CPH-CFZ 0 µM) was 96.6% and the viability at 24 h, 10 µM ([3]; BZL 10.0 µM + LTD-CPH-CFZ 0 µM) was 97.5%. For the same molecule, the viability at 24 h, 50 µM ([3]; BZL 50.0 µM + LTD-CPH-CFZ 0 µM) was 95.7%, the viability at 24 h, 100 µM ([3]; BZL 100.0 µM + LTD-CPH-CFZ 0 µM) was 92.9% and the “DRI BZL” value ([4]; BZL 0.50 µM + LTD-CPH-CFZ 3.00 µM (1/10 IC50)) was 3.60 ± 0.06. For the same molecule, the “DRI BZL” value ([4]; BZL 0.50 µM + LTD-CPH-CFZ 6.00 µM (1/5 IC50)) was 9.19 ± 1.16, the “DRI BZL” value ([4]; BZL 0.50 µM + LTD-CPH-CFZ 7.50 µM (1/4 IC50)) was 22.88 ± 3.02 and the “DRI BZL” value ([4]; BZL 0.50 µM + LTD-CPH-CFZ 10.00 µM (1/3 IC50)) was 94.41 ± 15.96. The “DRI BZL” value ([4]; BZL 1.00 µM + LTD-CPH-CFZ 3.00 µM (1/10 IC50)) was 5.34 ± 0.30, the “DRI BZL” value ([4]; BZL 1.00 µM + LTD-CPH-CFZ 6.00 µM (1/5 IC50)) was 12.08 ± 1.16 and the “DRI BZL” value ([4]; BZL 1.00 µM + LTD-CPH-CFZ 7.50 µM (1/4 IC50), listed as BZL) was 27 and 27.38 ± 2.15. The “DRI BZL” value ([4]; BZL 1.00 µM + LTD-CPH-CFZ 10.00 µM (1/3 IC50)) was 95.04 ± 0.83, the “DRI BZL” value ([4]; BZL 5.00 µM + LTD-CPH-CFZ 3.00 µM (1/10 IC50)) was 2.88 ± 0.54 and the “DRI BZL” value ([4]; BZL 5.00 µM + LTD-CPH-CFZ 6.00 µM (1/5 IC50)) was 7.17 ± 1.62. For the same molecule, the “DRI BZL” value ([4]; BZL 5.00 µM + LTD-CPH-CFZ 7.50 µM (1/4 IC50)) was 14.85 ± 6.05, the “DRI BZL” value ([4]; BZL 5.00 µM + LTD-CPH-CFZ 10.00 µM (1/3 IC50)) was 32.44 ± 3.71 and the “DRI BZL” value ([4]; BZL 10.00 µM + LTD-CPH-CFZ 3.00 µM (1/10 IC50)) was 1.46 ± 0.23. The “DRI BZL” value ([4]; BZL 10.00 µM + LTD-CPH-CFZ 6.00 µM (1/5 IC50)) was 6.02 ± 1.15, the “DRI BZL” value ([4]; BZL 10.00 µM + LTD-CPH-CFZ 7.50 µM (1/4 IC50)) was 33.28 ± 1.72 and the “DRI BZL” value ([4]; BZL 10.00 µM + LTD-CPH-CFZ 10.00 µM (1/3 IC50)) was 35.17 ± 4.38. The “Dose BZL alone” value ([4]; same effect (Fa 0.226) as BZL 0.50 µM + LTD-CPH-CFZ 3.00 µM) was 1.80 ± 0.03 µM, the “Dose BZL alone” value ([4]; same effect (Fa 0.417) as BZL 0.50 µM + LTD-CPH-CFZ 6.00 µM) was 4.60 ± 0.58 µM and the “Dose BZL alone” value ([4]; same effect (Fa 0.452) as BZL 1.00 µM + LTD-CPH-CFZ 3.00 µM) was 5.34 ± 0.30 µM. For the same molecule, the “Dose BZL alone” value ([4]; same effect (Fa 0.631) as BZL 0.50 µM + LTD-CPH-CFZ 7.50 µM) was 11.44 ± 1.51 µM, the “Dose BZL alone” value ([4]; same effect (Fa 0.643) as BZL 1.00 µM + LTD-CPH-CFZ 6.00 µM) was 12.08 ± 1.16 µM and the “Dose BZL alone” value ([4]; same effect (Fa 0.679) as BZL 5.00 µM + LTD-CPH-CFZ 3.00 µM) was 14.42 ± 2.70 µM. The “Dose BZL alone” value ([4]; same effect (Fa 0.702) as BZL 10.00 µM + LTD-CPH-CFZ 3.00 µM) was 14.56 ± 2.33 µM, the “Dose BZL alone” value ([4]; same effect (Fa 0.798) as BZL 1.00 µM + LTD-CPH-CFZ 7.50 µM) was 27.38 ± 2.15 µM and the “Dose BZL alone” value ([4]; same effect (Fa 0.833) as BZL 5.00 µM + LTD-CPH-CFZ 6.00 µM) was 35.83 ± 8.10 µM. The “Dose BZL alone” value ([4]; same effect (Fa 0.869) as BZL 0.50 µM + LTD-CPH-CFZ 10.00 µM) was 47.21 ± 7.98 µM, the “Dose BZL alone” value ([4]; same effect (Fa 0.893) as BZL 10.00 µM + LTD-CPH-CFZ 6.00 µM) was 60.21 ± 11.50 µM and the “Dose BZL alone” value ([4]; same effect (Fa 0.905) as BZL 5.00 µM + LTD-CPH-CFZ 7.50 µM) was 74.24 ± 30.25 µM. For the same molecule, the “Dose BZL alone” value ([4]; same effect (Fa 0.929) as BZL 1.00 µM + LTD-CPH-CFZ 10.00 µM) was 95.04 ± 0.83 µM, the “Dose BZL alone” value ([4]; same effect (Fa 0.976) as BZL 5.00 µM + LTD-CPH-CFZ 10.00 µM) was 162.18 ± 18.57 µM and the “Dose BZL alone” value ([4]; same effect (Fa 0.988) as BZL 10.00 µM + LTD-CPH-CFZ 7.50 µM) was 332.83 ± 17.17 µM. For the same molecule, the “Dose BZL alone” value ([4]; same effect (Fa 0.988) as BZL 10.00 µM + LTD-CPH-CFZ 10.00 µM) was 351.76 ± 43.93 µM.
